± gives the standard deviation of the averaged measurements.
Legend:
Test in all cases: level (log10 ratio to DMSO vehicle control); higher = higher biomarker level / cell amount than vehicle control
Conditions in all cases: in DMSO
[1] = compound: C=C(C)C(=O)OCC(F)(F)C(F)(F)C(F)(F)C(F)(F)C(F)(F)C(F)(F)C(F)(F)F
Procedure: (§1)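 BioMAP Diversity Plus panel of 12 human primary cell co-culture systems (3C, 4H, LPS, SAg, BT, BF4T, BE3C, CASM3C, HDF3CGF, KF3CT, MyoF, Mphg). Compounds were added 1 h before stimulation and left for 24 h (MyoF 48 h; BT 72 h for soluble read-outs or 6 d for IgG). Biomarkers were read by ELISA, cytotoxicity by SRB, PBMC viability and proliferation by Alamar Blue. Each well value was divided by the mean of 8 DMSO control wells on the same plate and log10 transformed; duplicate blinded samples were tested at 4 concentrations.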

1-(Perfluorohexyl)octane = compound: CCCCCCCCC(F)(F)C(F)(F)C(F)(F)C(F)(F)C(F)(F)C(F)(F)F [1-(Perfluorohexyl)octane]
Procedure: as §1

Azathioprine = compound: Cn1cnc([N+](=O)[O-])c1Sc1ncnc2[nH]cnc12 [Azathioprine]
Procedure: as §1

[2] = compound: O=C(O)C(F)(F)C(F)(F)C(F)(F)C(F)(F)C(F)(F)C(F)(F)C(F)(F)C(F)(F)C(F)(F)C(F)(F)C(F)(F)C(F)(F)C(F)(F)F [Perfluorotetradecanoic acid]
Procedure: as §1

[3] = compound: O=C(O)C(F)(F)OC(F)(F)C(F)(F)OC(F)(F)C(F)(F)C(F)(F)C(F)(F)F [Perfluoro-3,6-dioxadecanoic acid]
Procedure: as §1

[4] = compound: O=C(O)CCC(F)(F)C(F)(F)C(F)(F)F [3:3 Fluorotelomer carboxylic acid]
Procedure: as §1

1H,1H-Heptafluorobutanol = compound: OCC(F)(F)C(F)(F)C(F)(F)F [1H,1H-Heptafluorobutanol]
Procedure: as §1

Test System	level (log10) ([1]; 6700 nM)	level (log10) ([1]; 20000 nM)	level (log10) (1-(Perfluorohexyl)octane; 6700 nM)	level (log10) (1-(Perfluorohexyl)octane; 20000 nM)	level (log10) (Azathioprine; 1400 nM)	level (log10) (Azathioprine; 4200 nM)	level (log10) (Azathioprine; 13000 nM)	level (log10) (Azathioprine; 38000 nM)	level (log10) ([2]; 6700 nM)	level (log10) ([2]; 20000 nM)	level (log10) ([3]; 6700 nM)	level (log10) ([3]; 20000 nM)	level (log10) ([3]; 60000 nM)	level (log10) ([4]; 6700 nM)	level (log10) ([4]; 20000 nM)	level (log10) ([4]; 60000 nM)	level (log10) (1H,1H-Heptafluorobutanol; 6700 nM)	level (log10) (1H,1H-Heptafluorobutanol; 20000 nM)	level (log10) (1H,1H-Heptafluorobutanol; 60000 nM)
lMphg:CXCL8/IL-8	-0.042 ± 0.021	-0.0315 ± 0.047	-0.0215 ± 0.0078	0.022 ± 0.02	-0.0045 ± 0.047	-0.042 ± 0.021	0.0375 ± 0.0064	0.0825 ± 0.019	0.0035 ± 0.032	0.0215 ± 0.049	0.01 ± 0.0057	0.0595 ± 0.025	0.0695 ± 0.021	-0.0215 ± 0.059	-0.001 ± 0.051	0.025 ± 0.02	0.003 ± 0.055	0.0295 ± 0.036	0.0415 ± 0.021
lMphg:IL-1alpha	-0.0265 ± 0.029	0.005 ± 0.13	-0.0215 ± 0.013	0.0085 ± 0.074	0.0185 ± 0.067	0.0045 ± 0.0078	-0.0015 ± 0.023	-0.005 ± 0.057	0.021 ± 0.068	0.004 ± 0.05	-0.0105 ± 0.056	-0.021 ± 0.011	0.021 ± 0.011	-0.0005 ± 0.11	0 ± 0.057	0.028 ± 0.059	0.0275 ± 0.04	0.008 ± 0.018	0.015 ± 0.0014
lMphg:M-CSF	-0.0185 ± 0.0035	-0.0025 ± 0.033	-0.0235 ± 0.021	-0.0205 ± 0.036	0.004 ± 0.018	-0.0045 ± 0.0021	-0.032 ± 0.011	-0.0885 ± 0.0064	-0.0065 ± 0.03	-0.0175 ± 0.015	-0.027 ± 0.045	-0.0395 ± 0.0035	-0.0475 ± 0.026	-0.021 ± 0.024	-0.008 ± 0.0085	-0.0115 ± 0.0021	-0.005 ± 0.017	0.0045 ± 0.016	0.0125 ± 0.019
lMphg:SRB	-0.012 ± 0.016	-0.015 ± 0.016	0.002 ± 0.0042	0 ± 0.0085	-0.0055 ± 0.0078	-0.0055 ± 0.005	-0.014 ± 0.0085	-0.0365 ± 0.0021	-0.0035 ± 0.0035	-0.0105 ± 0.0078	-0.0135 ± 0.011	-0.01 ± 0.0071	-0.0705 ± 0.013	-0.0305 ± 0.026	-0.0105 ± 0.021	-0.013 ± 0.0042	-0.0045 ± 0.0064	-0.002 ± 0.018	-0.005 ± 0.0014
lMphg:SRB-Mphg	0.0095 ± 0.052	0.0365 ± 0.03	-0.007 ± 0.013	0.0305 ± 0.019	-0.001 ± 0.031	-0.0085 ± 0.0021	-0.0155 ± 0.011	-0.0235 ± 0.0021	0.0035 ± 0.011	0.006 ± 0.031	0.012 ± 0.016	0.014 ± 0.024	-0.0125 ± 0.03	-0.019 ± 0.13	-0.047 ± 0.1	-0.048 ± 0.12	0.005 ± 0.0028	-0.009 ± 0.0042	0.006 ± 0.0099
lMphg:sIL-10	-0.0725 ± 0.016	-0.121 ± 0.31	-0.0375 ± 0.056	-0.036 ± 0.054	0.0005 ± 0.12	-0.077 ± 0.047	-0.117 ± 0.059	-0.311 ± 0.081	-0.032 ± 0.0014	-0.0315 ± 0.033	-0.023 ± 0.024	-0.042 ± 0.023	-0.561 ± 0.13	-0.049 ± 0.073	-0.035 ± 0.076	-0.087 ± 0.016	-0.165 ± 0.033	0.032 ± 0.014	-0.0565 ± 0.097
